# Laboratory results reported in patent US11484608B2, “Non-invasive assessment of hepatic mitochondrial metabolism by positional isotopomer NMR tracer analysis (PINTA)” (YALE UNIVERSITY, priority 2017, dated 2022).
# Legend:
# [1] = system: primary mouse hepatocytes; assay: In vitro glucose production, VPC and lipolysis in isolated hepatocytes; format: cell-based
# Procedure, shortened: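 Primary mouse hepatocytes were plated and cultured overnight in low-glucose DMEM, with 10% FBS for glucose production or serum-free 0.5% BSA medium for lipolysis. Media were then collected after 8 hr at 37° C for glucose, NEFA and glycerol, and VPC was derived as the PINTA VPC/VEGP ratio × glucose production. Agents were present through the 8-hr assay, and values were normalized to total protein and expressed as fold change vs vehicle.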
# [2] = system: primary mouse hepatocytes; assay: Oxygen consumption in isolated hepatocytes (Seahorse); format: cell-based
# Method: To assess oxygen consumption, primary mouse hepatocytes were isolated as described above and plated on collagen-I coated XF24 V7 cell culture plates (1.2×10^4 cells per well) in 2 mL recovery media as previously described (Camporez, J. P. et al. Endocrinology 154, 3099-3109). Following incubation for 6 hr at 37° C. and 5% CO2, the cells were washed twice with 1 ml Low Glucose Culture Media and incubated overnight in 250 μl low glucose culture media at 37° C. and 5% CO2. The following morning, cells were washed with XF24 assay media (DMEM Base containing 1.0 mM pyruvate, 2 mM glutamine and 5.5 mM glucose, pH 7.4). 500 μL of XF24 Assay Media was added to each well and plates were equilibrated at 37° C. for 1 h. Four measurements of basal oxygen consumption rates (picomoles per minute) were recorded on a Seahorse Bioscience XF^e 24 Analyzer (Seahorse Biosciences) using an instrument protocol of 3-minute mix, 2-minute wait, and 3-minute measure. […] Ten measurements were taken following injection and the average of eight measurements were used for subsequent analyses. Oxygen consumption rates were normalized to total protein content and expressed as fold change compared to vehicle-treated cells. Experiments were repeated three times using 3-4 mice per genotype.
# [3] = isolated WT hepatocytes, 100 nM glucagon, 8 hr
substance,measurement,setting,value
glucagon,increases in NEFA and glycerol production,"[1]; WT hepatocytes, glucagon, not InsP3R-I deficient",60-100%
same,increase in VPC flux,[1]; [3],two-fold
same,increase in glucose production,[1]; [3],two-fold
same,stimulation of mitochondrial oxidation,[2]; InsP3R-I KO hepatocytes from male mice,blunted
same,stimulation of mitochondrial oxidation,[2]; WT hepatocytes from male mice,~60%
same,oxygen consumption,"[2]; isolated WT hepatocytes, 100 nM glucagon, not InsP3R-I KO",increase
